Source: patent US9102648B1, “Bioavailable diacylhydrazine ligands for modulating the expression of exogenous genes via an ecdysone receptor complex” (Intrexon Corporation, priority 2003, dated 2015)
Read-outs that look alike come from different tables or passages of the source.

Assays:
[1] = biological target: GAL4 DBD-CfEcR(DEF)/VP16AD-MmRXRE (Choristoneura fumiferana, UniProt O77240); assay: 13B3 Assay (CHO stable cell line, luciferase reporter); details: for 13B3 assay Rel Max FI: maximum fold induction at any concentration relative to that of GS-E ligand, CHO 13B3 cells; for fold induction at 3.3 µM: read-out: Fold Induction, 13B3 Assay, 3.3 uM; for fold induction at 33 µM: read-out: Fold Induction, 13B3 Assay, 33 uM; for Fold Induction, 13B3 Assay, 3.3 uM: 3.3 uM ligand; for Fold Induction, 13B3 Assay, 3.3 uM / Fold Induction, 13B3 Assay, 33 uM: RLU ligand treated / RLU DMSO treated cells; for Fold Induction, 13B3 Assay, 33 uM: 33 uM ligand
How it was run: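 Ligands dosed at 8 levels from 33 to 0.01 μM (DMSO stocks diluted 300-fold) onto the 13B3 CHO line carrying GAL4-DBD/CfEcR-DEF, VP16/MmRXR-DE and a GAL4-responsive luciferase gene.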

[2] = biological target: GAL4 DBD (1-147)-CfEcR(DEF)/VP16AD-βRXREF-LmUSPEF (Choristoneura fumiferana, UniProt O77240); assay: cell-based; details: for 27-63 assay Rel Max FI: maximum fold induction at any concentration relative to that of GS-E ligand, CHO 27-63 cells; for fold induction at 3.3 µM: read-out: Fold Induction, 27-63 Assay, 3.3 uM; for fold induction at 33 µM: read-out: Fold Induction, 27-63 Assay, 33 uM; for Fold Induction, 27-63 Assay, 3.3 uM: 3.3 uM ligand; for Fold Induction, 27-63 Assay, 3.3 uM / Fold Induction, 27-63 Assay, 33 uM: RLU ligand treated / RLU DMSO treated cells; for Fold Induction, 27-63 Assay, 33 uM: 33 uM ligand
[3] = read-out: 13B3 EC50, CHO 13B3 stable cell line, luciferase reporter, 48 h, average of two wells
[4] = read-out: 27-63 assay EC50, CHO 27-63 stable cell line, luciferase reporter, average of two wells

CCc1c(OC)cccc1C(=O)NN(C(=O)c1cc(C)cc(C)c1)C(C)(C)C=O [RG-115407, 2-ethyl-3-methoxy-benzoic acid N′-(3,5-dimethyl-benzoyl)-N′-(1,1-dimethyl-2-oxo-ethyl)-hydrazide]
EC50 [1]: 7000 nM
13B3 assay Rel Max FI [1]: 1.048
fold induction at 3.3 µM [1]: 2480
fold induction at 33 µM [1]: 2610
EC50 [2]: 1060 nM
27-63 assay Rel Max FI [2]: 0.932
fold induction at 3.3 µM [2]: 1610
fold induction at 33 µM [2]: 1520

Cc1c(C(=O)NN(C(=O)c2ccc(F)c(F)c2)C(C)(C)C)ccc2c1CCCO2 [RG-115416]
Fold Induction, 13B3 Assay, 3.3 uM ([1]; average of two wells): 3618
Fold Induction, 13B3 Assay, 33 uM ([1]; average of two wells): 2737
13B3 assay Rel Max FI [1]: 12.104
EC50 [1, 3]: 938 nM
Fold Induction, 27-63 Assay, 3.3 uM ([2]; average of two wells): 2412
Fold Induction, 27-63 Assay, 33 uM ([2]; average of two wells): 1867
27-63 assay Rel Max FI [2]: 0.721
EC50 [2, 4]: 637 nM

Cc1ccc(F)c(C(=O)N(NC(=O)c2ccc3c(c2C)CCCO3)C(C)(C)C)c1 [RG-115499]
Fold Induction, 13B3 Assay, 3.3 uM ([1]; average of two wells): 1182
Fold Induction, 13B3 Assay, 33 uM ([1]; average of two wells): 731
13B3 assay Rel Max FI [1]: 0.489
EC50 [1, 3]: 328 nM
Fold Induction, 27-63 Assay, 3.3 uM ([2]; average of two wells): 2092
Fold Induction, 27-63 Assay, 33 uM ([2]; average of two wells): 1536
27-63 assay Rel Max FI [2]: 0.705
EC50 [2, 4]: 336 nM

CCc1c(C(=O)NN(C(=O)c2cc(F)ccc2F)C(C)(C)C)ccc2c1OCCO2 [RG-115508]
Fold Induction, 13B3 Assay, 3.3 uM ([1]; average of two wells): 310
Fold Induction, 13B3 Assay, 33 uM ([1]; average of two wells): 191
13B3 assay Rel Max FI [1]: 0.805
EC50 [1, 3]: 849 nM
Fold Induction, 27-63 Assay, 3.3 uM ([2]; average of two wells): 1195
Fold Induction, 27-63 Assay, 33 uM ([2]; average of two wells): 969
27-63 assay Rel Max FI [2]: 0.719
EC50 [2, 4]: 1030 nM

CCc1c(OC)cccc1C(=O)NN(C(=O)c1cc(C)cc(C)c1)C(C)(C)C=NCCO [RG-115511]
Fold Induction, 13B3 Assay, 3.3 uM ([1]; average of two wells): 1
Fold Induction, 13B3 Assay, 33 uM ([1]; average of two wells): 98
13B3 assay Rel Max FI [1]: 0.07
EC50 [1, 3]: > 50000 nM
Fold Induction, 27-63 Assay, 3.3 uM ([2]; average of two wells): 1
Fold Induction, 27-63 Assay, 33 uM ([2]; average of two wells): 1155
27-63 assay Rel Max FI [2]: 0.74
EC50 [2, 4]: 12000 nM

CCc1c(C(=O)NN(C(=O)c2ccc(Cl)cc2F)C(C)(C)C)ccc2c1OCCO2 [RG-115514]
Fold Induction, 13B3 Assay, 3.3 uM ([1]; average of two wells): 4009
Fold Induction, 13B3 Assay, 33 uM ([1]; average of two wells): 515
13B3 assay Rel Max FI [1]: 0.550
EC50 [1, 3]: 541 nM
Fold Induction, 27-63 Assay, 3.3 uM ([2]; average of two wells): 1616
Fold Induction, 27-63 Assay, 33 uM ([2]; average of two wells): 1427
27-63 assay Rel Max FI [2]: 0.720
EC50 [2, 4]: 170 nM

Cc1c(C(=O)NN(C(=O)c2cc(F)c(F)c(F)c2F)C(C)(C)C)ccc2c1CCCO2 [RG-115518]
Fold Induction, 13B3 Assay, 3.3 uM ([1]; average of two wells): 1644
Fold Induction, 13B3 Assay, 33 uM ([1]; average of two wells): 926
13B3 assay Rel Max FI [1]: 0.648
EC50 [1, 3]: 1250 nM
Fold Induction, 27-63 Assay, 3.3 uM ([2]; average of two wells): 1640
Fold Induction, 27-63 Assay, 33 uM ([2]; average of two wells): 1126
27-63 assay Rel Max FI [2]: 0.866
EC50 [2, 4]: 1050 nM

Cc1c(C(=O)NN(C(=O)c2cc(F)c(Cl)cc2Cl)C(C)(C)C)ccc2c1CCCO2 [RG-115539]
Fold Induction, 13B3 Assay, 3.3 uM ([1]; average of two wells): 20
Fold Induction, 13B3 Assay, 33 uM ([1]; average of two wells): 592
13B3 assay Rel Max FI [1]: 0.955
EC50 [1, 3]: 5000 nM
Fold Induction, 27-63 Assay, 3.3 uM ([2]; average of two wells): 1076
Fold Induction, 27-63 Assay, 33 uM ([2]; average of two wells): 534
27-63 assay Rel Max FI [2]: 0.595
EC50 [2, 4]: 1180 nM

COc1ccc(Cl)cc1C(=O)N(NC(=O)c1ccc2c(c1C)CCCO2)C(C)(C)C [RG-115551]
Fold Induction, 13B3 Assay, 33 uM ([1]; average of two wells): 290
Fold Induction, 27-63 Assay, 3.3 uM ([2]; average of two wells): 1150
Fold Induction, 27-63 Assay, 33 uM ([2]; average of two wells): 1068
27-63 assay Rel Max FI [2]: 0.684
EC50 [2, 4]: 852 nM

CCc1c(C(=O)NN(C(=O)c2ccc(F)c(F)c2F)C(C)(C)C)ccc2c1OCCO2 [RG-115580]
Fold Induction, 13B3 Assay, 33 uM ([1]; average of two wells): 298
Fold Induction, 27-63 Assay, 3.3 uM ([2]; average of two wells): 1104
Fold Induction, 27-63 Assay, 33 uM ([2]; average of two wells): 1031
27-63 assay Rel Max FI [2]: 0.760
EC50 [2, 4]: 375 nM

CCc1c(OC)cccc1C(=O)NN(C(=O)c1cc(C)cc(C)c1)C(C)(C)C=NNC(=O)C(N)=O [RG-115597, oxamic carbazide of 2-ethyl-3-methoxy-benzoic acid N′-(3,5-dimethyl-benzoyl)-N′-(1,1-dimethyl-2-oxo-ethyl)-hydrazide]
Fold Induction, 13B3 Assay, 33 uM ([1]; average of two wells): 4667
Fold Induction, 27-63 Assay, 3.3 uM ([2]; average of two wells): 2
Fold Induction, 27-63 Assay, 33 uM ([2]; average of two wells): 2065
27-63 assay Rel Max FI [2]: 1.26
EC50 [2, 4]: 9830 nM

COc1cc(C(=O)N(NC(=O)c2ccc3c(c2C)OCCO3)C(C)(C)C)cc(OC)c1C [RG-115637, 5-Methyl-2,3-dihydro-benzo[1,4]dioxine-6-carboxylic acid N′-tert-butyl-N′-(3,5-dimethoxy-4-methyl-benzoyl)-hydrazide]
EC50 [1]: 88 nM
13B3 assay Rel Max FI [1]: 1.002
fold induction at 3.3 µM [1]: 1110
fold induction at 33 µM [1]: 636
EC50 [2]: 117 nM
27-63 assay Rel Max FI [2]: 1.305
fold induction at 3.3 µM [2]: 4160
fold induction at 33 µM [2]: 2740

CCc1c(OC)cccc1C(=O)NN(C(=O)c1ccc(Cl)cc1[N+](=O)[O-])C(C)(C)C [RG-115647]
Fold Induction, 13B3 Assay, 3.3 uM ([1]; average of two wells): 2169
Fold Induction, 13B3 Assay, 33 uM ([1]; average of two wells): 98
13B3 assay Rel Max FI [1]: 0.662
EC50 [1, 3]: 832 nM
Fold Induction, 27-63 Assay, 3.3 uM ([2]; average of two wells): 817
Fold Induction, 27-63 Assay, 33 uM ([2]; average of two wells): 815
27-63 assay Rel Max FI [2]: 0.505
EC50 [2, 4]: 372 nM

CCc1c(OC)cccc1C(=O)NN(C(=O)c1cc(C)cc(C)c1)C(C)(C)C=NNC(N)=O [RG-115653, semicarbazide of 2-ethyl-3-methoxy-benzoic acid N′-(3,5-dimethyl-benzoyl)-N′-(1,1-dimethyl-2-oxo-ethyl)-hydrazide]
Fold Induction, 13B3 Assay, 3.3 uM ([1]; average of two wells): 6
Fold Induction, 27-63 Assay, 3.3 uM ([2]; average of two wells): 1
Fold Induction, 27-63 Assay, 33 uM ([2]; average of two wells): 832
27-63 assay Rel Max FI [2]: 0.53
EC50 [2, 4]: 19800 nM

Cc1ccc([N+](=O)[O-])c(C(=O)N(NC(=O)c2ccc3c(c2C)CCCO3)C(C)(C)C)c1 [RG-115664]
Fold Induction, 13B3 Assay, 3.3 uM ([1]; average of two wells): 1363
Fold Induction, 13B3 Assay, 33 uM ([1]; average of two wells): 333
13B3 assay Rel Max FI [1]: 0.497
EC50 [1, 3]: 323 nM
Fold Induction, 27-63 Assay, 3.3 uM ([2]; average of two wells): 1928
Fold Induction, 27-63 Assay, 33 uM ([2]; average of two wells): 1768
27-63 assay Rel Max FI [2]: 0.635
EC50 [2, 4]: 359 nM

CCc1c(OC)cccc1C(=O)NN(C(=O)c1cc(C)cc(C)c1)C(C)(C)CO[Si](C)(C)C(C)(C)C [RG-115665, 2-ethyl-3-methoxy-benzoic acid N′-[2-(tert-butyl-dimethyl-silanyloxy)-1,1-dimethyl-ethyl]-N′-(3,5-dimethyl-benzoyl)-hydrazide]
EC50 [1]: > 50000 nM
13B3 assay Rel Max FI [1]: 0
fold induction at 3.3 µM [1]: 1
EC50 [2]: 5490 nM
27-63 assay Rel Max FI [2]: 0.01
fold induction at 3.3 µM [2]: 2
